Results: PMC8929578, “In vitro and in silico evaluation of Ononis isoflavonoids as molecules targeting the central nervous system” (PLoS ONE, 2022)
Read-outs that look alike come from different tables or passages of the source.

Experiments:
Monoamine oxidase A = target: T1, Monoamine oxidase A (Homo sapiens, UniProt P21397); details: cited from earlier work
T1 sequence (P21397 1-527): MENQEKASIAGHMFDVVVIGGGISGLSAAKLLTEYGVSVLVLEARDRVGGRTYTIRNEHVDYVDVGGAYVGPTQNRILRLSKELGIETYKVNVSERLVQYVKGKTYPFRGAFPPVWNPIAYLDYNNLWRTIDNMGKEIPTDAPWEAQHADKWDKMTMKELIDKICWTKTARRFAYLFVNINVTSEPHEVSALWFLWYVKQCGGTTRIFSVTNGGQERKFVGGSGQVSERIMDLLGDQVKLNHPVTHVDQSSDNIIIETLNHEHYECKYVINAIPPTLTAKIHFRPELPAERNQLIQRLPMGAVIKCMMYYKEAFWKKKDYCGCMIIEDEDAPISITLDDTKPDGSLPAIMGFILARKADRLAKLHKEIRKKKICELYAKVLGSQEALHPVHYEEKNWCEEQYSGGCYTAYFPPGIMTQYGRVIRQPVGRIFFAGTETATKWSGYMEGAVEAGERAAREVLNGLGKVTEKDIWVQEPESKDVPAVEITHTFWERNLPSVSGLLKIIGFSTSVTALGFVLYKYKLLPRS

Monoamine oxidase B = target: T2, Monoamine oxidase B (Homo sapiens, UniProt P27338); details: cited from earlier work
T2 sequence (P27338 2-520): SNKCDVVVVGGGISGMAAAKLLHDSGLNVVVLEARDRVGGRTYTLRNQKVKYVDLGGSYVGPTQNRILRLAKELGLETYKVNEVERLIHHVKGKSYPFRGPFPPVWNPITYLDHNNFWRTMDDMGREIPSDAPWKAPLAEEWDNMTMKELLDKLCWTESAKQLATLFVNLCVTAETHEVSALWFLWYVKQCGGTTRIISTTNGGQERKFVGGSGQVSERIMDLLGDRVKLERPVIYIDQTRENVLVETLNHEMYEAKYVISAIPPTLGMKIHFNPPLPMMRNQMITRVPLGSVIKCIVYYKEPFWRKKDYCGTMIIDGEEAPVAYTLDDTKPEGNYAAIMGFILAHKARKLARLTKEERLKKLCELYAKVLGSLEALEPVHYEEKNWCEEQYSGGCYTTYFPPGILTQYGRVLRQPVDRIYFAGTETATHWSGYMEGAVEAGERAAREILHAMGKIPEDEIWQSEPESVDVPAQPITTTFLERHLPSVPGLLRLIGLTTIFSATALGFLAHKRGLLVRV

MAO-B vs MAO-A = assay: Selectivity index of ChEMBl reference structures (MAO-A and MAO-B IC50); type: biochemical, human; details: MAO-A IC50 / MAO-B IC50 of ChEMBL reference structures
MAO-B = details: in vitro; cited from earlier work
[1] = PAMPA, pH 7.4

| SMILES | pChEMBL Value, Type A (Monoamine oxidase A; MAO-A, ref ChEMBL database) | pChEMBL Value, MAO A (Monoamine oxidase A; human enzyme, ref ChEMBl database) | IC50 (Monoamine oxidase A; read-out: Standard Value (IC50), MAO A, human enzyme, ref ChEMBl database) [µM] | IC50 (Monoamine oxidase A; read-out: Standard Value (IC50), Type A, MAO-A, ref ChEMBL database) [µM] | pChEMBL Value, Type B (Monoamine oxidase B; MAO-B, ref ChEMBL database) | IC50 (Monoamine oxidase B; MAO-B, ref ChEMBL database, read-out: Standard Value (IC50), Type B) [µM] | pChEMBL Value, MAO B (Monoamine oxidase B; human enzyme, lines marked B, ref ChEMBl database) | IC50 (Monoamine oxidase B; human enzyme, lines marked B, ref ChEMBl database, read-out: Standard Value (IC50), MAO B) [µM] | Selectivity index (MAO-B vs MAO-A) | Experimental log P (pH 5) | Measured log D^7.4 ± SE (pH 7.4) | IC50 (MAO-B) [µM] | Experimental log Pe value ([1]; 4 h, 100 µM) | Experimental log Pe value [1] |
| --- | --- | --- | --- | --- | --- | --- | --- | --- | --- | --- | --- | --- | --- | --- |
| c1ccc2c(c1)OCC(C1=NCCN1)O2 (centres unmarked) [CHEMBL10316, IDAZOXAN] | 6 | 6 | 1 | 1 | 6 | 1 | 6 | 1 | 1 |  |  |  |  |  |
| COc1ccc2c(c1)O[C@H]1c3ccc(O)cc3OC[C@@H]21 [Medicarpin] |  |  |  |  |  |  |  |  |  | 3.03 | 3.03 ± 0.02 | 0.3 | -4.45 | -4.45 ± 0.04 |
